The text below walks through data of ChEMBL document CHEMBL1156632, “Enhanced antimalarial activity of novel synthetic aculeatin derivatives” (J Med Chem, 2008).

Each structure is given as a SMILES string.

Data set [1] can be described thus: (§1) Cytotoxicity against human K562 cells assessed as radioactive thymidine incorporation after 24 hrs. Format: cell-based. The conditions noted are these: K562 cells.
The subject of data set [2] is Plasmodium falciparum. Description: Antimalarial activity against Plasmodium falciparum 3D7 in human erythrocytes after 48hrs by [3H]hypoxanthine uptake. It counts as functional, organism-based.
A further data set concerns Toxoplasma gondii. Description: Antitoxoplasmal activity against Toxoplasma gondii RH-beta1 in HFF cells assessed as beta-galactosidase activity after 48 to 72 hrs by colorimetric microtiter assay. It counts as functional, organism-based.
Data set [3] in a line: Selectivity index, ratio of CC50 for human K562 cells to IC50 for Plasmodium falciparum 3D7. Format: functional.
The nature of data set [4]: Selectivity index, ratio of CC50 for human K562 cells to IC50 for Toxoplasma gondii RH-beta1. It counts as functional.
The subject of a further data set is K562. Described as §1. Format: cell-based. The conditions noted are these: k562, 24 h; for CC50: 24 h.
Data set [5] concerns Plasmodium falciparum. Description: Antimalarial activity against Plasmodium falciparum K1. It counts as functional, organism-based.
Where [6] appears, read: Toxoplasma gondii, RH-beta1, HFF.

One may read the CC50 as the concentration at which the toxic effect on the cells reaches its halfway point. The IC50 is the concentration at which inhibition is half-maximal. With `CCCCCCCCCCC(CCCCCCCCCC)OC(=O)C[C@H]1C[C@H](O)C[C@@]2(CCC3(C=CC(=O)C=C3)O2)O1` (racemic), the CC50 at 24 h in data set [1] was found to be 22100 nM. Further, the IC50 with Plasmodium falciparum [2] (Plasmodium falciparum, 3D7) was 1150 nM; in the data set with Toxoplasma gondii (setting [6]) it was 4450 nM. The “Selectivity Index” value in data set [3] and in data set [4] was 35 throughout.

For `CCCCCCCCCCCCCC1C[C@@H](O)CC2(CCC3(C=CC(=O)C=C3)O2)O1` (single isomer, unassigned) [ACULEATIN A], the CC50 at 24 h in data set [1] turned out to be 26700 nM. In addition, the IC50 in the data set on Plasmodium falciparum [2] worked out at 220 nM; with Toxoplasma gondii (setting [6]), 436 nM. Also, the “Selectivity Index” value in data set [3] and in data set [4] was 35 throughout.

Take `CCCCCCCCCCCCCC(=O)CC(=O)O[C@@H]1C[C@]2(CCC3(C=CC(=O)C=C3)O2)O[C@]2(CCC3(C=CC(=O)C=C3)O2)C1`: the CC50 at 24 h in data set [1] is under 380 nM. In the data set on Plasmodium falciparum [2] (Plasmodium falciparum, 3D7), this molecule had an IC50 of 120 nM. For the same molecule, the “Selectivity Index” value in data set [3] and in data set [4] was 35 each time.

Take `CCCCCCCCCCOC(=O)C[C@@H]1C[C@@H](O)C[C@]2(CCC3(C=CC(=O)C=C3)O2)O1` (stereo in doubt): the CC50 at 24 h in data set [1] stood at 41200 nM. Besides, the 50% inhibitory concentration (IC50) in the data set on Plasmodium falciparum [2] (Plasmodium falciparum, 3D7) was determined as 1360 nM; in the data set with Toxoplasma gondii (setting [6]), 1630 nM. In data set [3], the “Selectivity Index” value was determined as 35.

As for `CCCCCCC(=O)OC1C[C@]2(CCC3(C=CC(=O)C=C3)O2)O[C@]2(CCC3(C=CC(=O)C=C3)O2)C1` (some centres undefined), the CC50 at 24 h in data set [1] is under 380 nM. The molecule further displayed an IC50 in the data set on Plasmodium falciparum [2] (Plasmodium falciparum, 3D7) of 331 nM. Also, the “Selectivity Index” value in data set [4] is listed as 35.

In the case of `CCCCCCN(CCCCCC)C(=O)C[C@H]1C[C@H](O)C[C@@]2(CCC3(C=CC(=O)C=C3)O2)O1` (racemic), the CC50 at 24 h in data set [1] was found to be 390 nM. In the data set with Plasmodium falciparum [2] (Plasmodium falciparum, 3D7), half-maximal inhibition (IC50) required 899 nM. In addition, the “Selectivity Index” value in data set [3] and in data set [4] was 35 in each case.

Consider `CCCOC(=O)C[C@H]1C[C@H](O)C[C@@]2(CCC3(C=CC(=O)C=C3)O2)O1` (racemic), for which, in data set [1], the CC50 at 24 h came out at 109000 nM. The half-maximal inhibitory concentration (IC50) in the data set on Plasmodium falciparum [2] (Plasmodium falciparum, 3D7) was determined as 1840 nM; in the data set with Toxoplasma gondii (setting [6]), 500 nM. Also, the “Selectivity Index” value in data set [4] is listed as 219.

`CCCCCCCCCCCCC[C@@H]1CC(O)CC2(CCC3(C=CC(=O)C=C3)O2)O1` (single isomer, unassigned; form 1) [ACULEATINS B]: in the data set on K562, the 50% cytotoxic concentration (CC50) amounted to 30200 nM. Besides, the IC50 with Plasmodium falciparum [2] came to 451 nM; with Toxoplasma gondii (hff), 377 nM.

For the molecule `CCCCCCCCCCCCC[C@@H]1CC(O)CC2(CCC3(C=CC(=O)C=C3)O2)O1` (single isomer, unassigned; form 3) [ACULEATINS B], the CC50 at 24 h in data set [1] turned out to be 30800 nM. The IC50 in the data set on Plasmodium falciparum [2] (Plasmodium falciparum, 3D7) is 366 nM; in the data set on Toxoplasma gondii (setting [6]) it was 400 nM. Moreover, the “Selectivity Index” value in data set [3] and in data set [4] was 35 in each case.

Consider `CCCCCCCCCCCCC[C@@H](O)C[C@@H](O)CC(=O)CCc1ccc(O)cc1`, for which the CC50 at 24 h in data set [1] came out at 34500 nM. The IC50 in the data set on Plasmodium falciparum [2] (Plasmodium falciparum, 3D7) was over 10000 nM. Further, the “Selectivity Index” value in data set [3] was 35.

As for `CCCCCCCCCCCCCCCCCCOC(=O)C[C@H]1C[C@@H](O)C[C@@]2(CCC3(C=CC(=O)C=C3)O2)O1` (racemic), the CC50 at 24 h in data set [1] came out at 17500 nM. The 50% inhibitory concentration (IC50) with Plasmodium falciparum [2] (Plasmodium falciparum, 3D7) is 1030 nM; in the data set on Toxoplasma gondii (setting [6]), 3540 nM. The “Selectivity Index” value in data set [3] and in data set [4] was 35 in each case.

Consider `CCCCCCC(=O)O[C@@H]1C[C@]2(CCC3(C=CC(=O)C=C3)O2)O[C@]2(CCC3(C=CC(=O)C=C3)O2)C1`, for which, in data set [1], the CC50 at 24 h is under 380 nM. Besides, in the data set with Plasmodium falciparum [2] (Plasmodium falciparum, 3D7), half-maximal inhibition (IC50) required 343 nM. For the same molecule, the “Selectivity Index” value in data set [3] and in data set [4] was 35 each time.

As for `CCCCCCCCCCCCC[C@@H]1C[C@@H](O)C[C@]2(CCC3(C=CC(=O)C=C3)O2)O1` [ACULEATIN A], the CC50 with K562 was 28000 nM. For the same molecule, the IC50 is 478 nM in the data set on Plasmodium falciparum [2], 640 nM in the data set with Toxoplasma gondii (hff) and 1000 nM in the data set on Plasmodium falciparum [5].

As for `CCCCCCCCCCCCCC1C[C@H](O)CC2(CCC3(C=CC(=O)C=C3)O2)O1` (single isomer, unassigned), the CC50 at 24 h in data set [1] stood at 22100 nM. In addition, the half-inhibitory concentration (IC50) in the data set with Plasmodium falciparum [2] (Plasmodium falciparum, 3D7) stood at 329 nM; in the data set with Toxoplasma gondii (setting [6]), 627 nM. Also, the “Selectivity Index” value in data set [3] is reported as 35.

Take `CCCCCCCCCCCCCCCCCCOC(=O)C[C@H]1C[C@H](O)C[C@@]2(CCC3(C=CC(=O)C=C3)O2)O1` (racemic): the CC50 at 24 h in data set [1] turned out to be 13900 nM. Besides, the IC50 in the data set on Plasmodium falciparum [2] (Plasmodium falciparum, 3D7) was determined as 770 nM; in the data set on Toxoplasma gondii (setting [6]), 2400 nM. Further, the “Selectivity Index” value in data set [3] and in data set [4] was 35 throughout.

On to `CCCCCCCCCCCCC[C@@H]1C[C@@H](O)C[C@]2(CCC3(CCC(=O)CC3)O2)O1` (racemic), for which the CC50 at 24 h in data set [1] was 25600 nM. Also, the concentration for half-maximal inhibition (IC50) with Plasmodium falciparum [2] (Plasmodium falciparum, 3D7) was over 5000 nM; with Toxoplasma gondii (setting [6]) it was 11000 nM. Moreover, in data set [4], the “Selectivity Index” value came out at 35.

`CCCCCCCCCCCCC[C@H]1C[C@@H](O)C[C@]2(CCC3(C=CC(=O)C=C3)O2)O1` [(+)-ACULEATIN B]: the CC50 at 24 h in data set [1] was 27500 nM. In addition, the half-inhibitory concentration (IC50) turned out to be 454 nM in the data set with Plasmodium falciparum [2] (Plasmodium falciparum, 3D7); 365 nM in the data set with Toxoplasma gondii (setting [6]); 430 nM with Plasmodium falciparum [5]. Also, the “Selectivity Index” value in data set [3] and in data set [4] was 35 in each case.

Turning to `O=C1C=CC2(C=C1)CC[C@]1(C[C@@H](O)C[C@@]3(CCC4(C=CC(=O)C=C4)O3)O1)O2`, the CC50 at 24 h in data set [1] was 390 nM. The IC50 is 414 nM with Plasmodium falciparum [2] (Plasmodium falciparum, 3D7) and 173 nM in the data set on Toxoplasma gondii (setting [6]). Moreover, the “Selectivity Index” value in data set [3] and in data set [4] was 35 throughout.

For the molecule `CCCCCCCCCCCCC[C@@H]1CC(O)CC2(CCC3(C=CC(=O)C=C3)O2)O1` (single isomer, unassigned; form 2), the CC50 at 24 h in data set [1] was 25800 nM. Moreover, the 50% inhibitory concentration (IC50) in the data set with Plasmodium falciparum [2] (Plasmodium falciparum, 3D7) was 335 nM; in the data set with Toxoplasma gondii (hff), 436 nM. Besides, the “Selectivity Index” value in data set [3] and in data set [4] was 35 throughout.

As for `O=C1C=CC2(C=C1)CC[C@]1(CC(O)C[C@]3(CCC4(C=CC(=O)C=C4)O3)O1)O2` (some centres undefined), in the data set with K562, the Activity result is reported as “Toxic”. Besides, the IC50 with Plasmodium falciparum [2] (Plasmodium falciparum, 3D7) stood at 584 nM; in the data set with Toxoplasma gondii (setting [6]), 1500 nM. For the same molecule, in data set [4], the “Selectivity Index” value stood at 35.

As for `CCCCCCCCCCCCCC(=O)O[C@@H]1C[C@]2(CCC3(C=CC(=O)C=C3)O2)O[C@]2(CCC3(C=CC(=O)C=C3)O2)C1`, the 50% cytotoxic concentration (CC50) at 24 h in data set [1] stood at 8750 nM. Further, the IC50 stood at 81 nM in the data set with Plasmodium falciparum [2] (Plasmodium falciparum, 3D7) and 346 nM with Toxoplasma gondii (setting [6]). Besides, in data set [3], the “Selectivity Index” value is recorded as 109.

With `CCCCCCCCCCCCCCCCCCOC(=O)C[C@H]1C[C@@H](O)C[C@]2(CCC3(C=CC(=O)C=C3)O2)O1` (racemic), in data set [1], the CC50 at 24 h was found to be 15600 nM. The IC50 came out at 1130 nM with Plasmodium falciparum [2] (Plasmodium falciparum, 3D7) and 3520 nM in the data set with Toxoplasma gondii (setting [6]). Further, the “Selectivity Index” value in data set [3] and in data set [4] was 35 each time.

As for `CCCCCCCCCCCCC[C@@H]1C[C@H](O)C[C@@]2(CCC3(C=CC(=O)C=C3)O2)O1`, in the data set with K562, the CC50 was found to be 25500 nM. In addition, the IC50 with Plasmodium falciparum [2] worked out at 288 nM; with Toxoplasma gondii (setting [6]), 309 nM; in the data set on Plasmodium falciparum [5], 180 nM.

For `CCN(CC)CCCC(C)Nc1ccnc2cc(Cl)ccc12` (centres undefined) [CHLOROQUINE], the CC50 at 24 h in data set [1] is 9700 nM.

On to `CCCCCCCCCCOC(=O)C[C@H]1C[C@H](O)C[C@@]2(CCC3(C=CC(=O)C=C3)O2)O1` (stereo in doubt), for which the CC50 at 24 h in data set [1] turned out to be 28200 nM. In addition, the IC50 in the data set on Plasmodium falciparum [2] (Plasmodium falciparum, 3D7) is 654 nM; in the data set on Toxoplasma gondii (setting [6]), 341 nM. Also, the “Selectivity Index” value in data set [3] and in data set [4] was 35 throughout.

Take `CCCCCCCCCCCCCC(=O)OC1C[C@]2(CCC3(C=CC(=O)C=C3)O2)O[C@]2(CCC3(C=CC(=O)C=C3)O2)C1` (some centres undefined): in data set [1], the CC50 at 24 h amounted to 11300 nM. Besides, the IC50 was determined as 92 nM in the data set with Plasmodium falciparum [2] (Plasmodium falciparum, 3D7) and 636 nM in the data set with Toxoplasma gondii (setting [6]). Besides, the “Selectivity Index” value in data set [3] stood at 123.
